Data set [1] deals with human KCNQ5 (hKCNQ5) potassium channel, SEQ ID No 2. Description: Two-electrode voltage-clamp of KCNQ5 currents in Xenopus oocytes injected with cRNA. The settings on record: 3s depolarizing step from -100 mV to 0 mV. The data set is classed as cell-based. For orientation: Two-electrode voltage clamp is typically applied to oocytes expressing channels or transporters.
Description: Xenopus laevis oocytes were obtained from tricaine anaesthetized animals. Ovaries were collagenase treated (1 mg/ 1 ml, Worthington, type II) in OR 2 solution (NaCl 82.5 mM, KCl 2 mM, MgCl2 1 mM, HEPES 5 mM, pH 7.4) for 120 min and subsequently stored in recording solution ND-96 (NaCl 96 mM, KCI 2 mM, CaCl2 1.8 mM, MgCl2 1 mM, HEPES 5 mM, pH 7.4) with additional NaPyruvate (275 mg/l), Theophylline (90 mg/l) and Gentamycin (50 mg/l) at 18°C. […] Standard two-electrode voltage-clamp recordings were performed at room temperature with a Turbo Tec 10CD (NPI) amplifier, an ITC-16 interface combined with Pulse software (HEKA) and Origin for data aquisition on Pentium 11 PC. Macroscopic currents were recorded 2-4 days after injection. All fitting procedures were based on the simplex algorithm. Student's t test was used to test for statistical significance, which was assumed if P<0.05 and indicated by *.
However, it can be described by a biexponential function. […] KCNQ5 deactivation was well fitted to a second order exponential function. The two components of deactivation were determined at a repolarizing voltage of -100 mV following a 3s depolarizing step to +40 mV.
For data set [2], the system named is KCNQ1. The settings on record: cited from earlier work.
In data set [3] the test system is KCNQ3. The settings on record: at 10µM; cited from earlier work.
Data set [4] concerns KCNQ2. Conditions: at 10µM; cited from earlier work.

Structures are written as SMILES.

Take `CCS(=O)(=O)N(C)[C@H]1c2cc(C#N)ccc2OC(C)(C)[C@@H]1O` (racemic) [chromanol 293B]: the “block of KCNQ5 currents” value in data set [1] (at 100 µM) came to 45%. The “block of KCNQ1” value in data set [2] (at 100 µM) is 80%.

What is called IC50 is the point on the concentration scale where inhibition reaches its midpoint. For the molecule `CCCCCCC[N+](CC)(CC)CCCCc1ccc(Cl)cc1` [Clofilium], the “reduction of KCNQ5 current” value in data set [1] (at 30 µM) is recorded as 40%. Besides, in data set [2] (read-out: IC50 (block of KCNQ1)), the IC50 is under 10 µM. Besides, in data set [3], the “inhibition of KCNQ3” value was 30%. In addition, the “inhibition of KCNQ2” value in data set [4] is “little inhibition”.

(Values after patent EP1268545B1, “POTASSIUM CHANNEL PROTEIN KCNQ5, A TARGET FOR DISEASES OF CENTRAL NERVOUS SYSTEM AND CARDIOVASCULAR SYSTEM” (priority 2000, dated 2001).)
